Reference: publication PMC9045277, “Quercetin Reduces the Virulence of S. aureus by Targeting ClpP to Protect Mice from MRSA-Induced Lethal Pneumonia” (Microbiology Spectrum, 2022)
≈ marks a conversion by molar mass, not a printed value.

B1: Caseinolytic peptidase P (ClpP) of S. aureus, label-free (His tag excised) (enzyme)
chain: MNLIPTVIETTNRGERAYDIYSRLLKDRIIMLGSQIDDNVANSIVSQLLFLQAQDSEKDIYLYINSPGGSVTAGFAIYDTIQHIKPDVQTICIGMAASMGSFLLAAGAKGKRFALPNAEVMIHQPLGGAQGQATEIEIAANHILKTREKLNRILSERTGQSIEKIQKDTDRDNFLTAEEAKEYGLIDEVMVPETK
notes: also called casein hydrolase P; label-free ClpP protein; source: E. coli BL21 (DE3), pET28a-clpP, purified (His-Trap); copies: 14

How the values were obtained:
ClpP [1] = target: T1, ClpP (Staphylococcus aureus, UniProt Q2G036); experiment: biochemical; details: read-out: Relative inhibition rate (%)
T1 construct: pET28a-clpP, purified from E. coli BL21(DE3)
Experimental: This property was exploited to screen the available laboratory library of small molecules for ClpP inhibitors. First, 10 μM ClpP and 64 μg/mL of the small molecule compound were added to a black opaque 96-well plate containing 100 μL of ClpP buffer (100 mM HEPES,100 mM NaCl) and incubated for 1 h at room temperature. Afterward, 100 μM Suc-LeuTyr-AMC (Cat number S1153, Sigma-Aldrich, St. Louis, MO, USA) was added to 96-well plates and incubated for 30 min at 32°C. Finally, the fluorescence values were detected by Infinite M200 (360 nm excitation/465 nm emission). […] Since the fluorescent substrate Suc-LY-AMC can be used to detect the activity of ClpP protein, we screened a library of natural products available in our laboratory.

S. aureus USA300 (MRSA) = test system: T2, S. aureus USA300 (MRSA); experiment: microbe, parasite or virus in culture; parameters: MIC, growth inhibition of MRSA USA300; details: Staphylococcus aureus, read-out: MIC (μg/mL)
T2 construct: USA300

ClpP [2] = target: T1, ClpP; experiment: ClpP peptidase assay with fluorescent substrate Suc-LY-AMC (positive-control inhibitor); assay type: biochemical
ClpP [3] = target: T1, ClpP; experiment: LSPR (OpenSPR) with immobilized ClpP; supported by TSA, CETSA in lysate, and Suc-LY-AMC inhibition (IC50 […]); assay type: binding
[4] = target: T3, 6×His-ClpX protein of S. aureus (S. aureus, UniProt Q2FXQ7 1-420); experiment: pull-down; 6×His-ClpX and label-free ClpP mixed with 2 mM ATPγS (with DMSO, quercetin or ADEP4), overnight at 4°C; passed through Ni-NTA, washed with binding buffer (40 mM Tris, 200 mM NaCl, pH 8.5), eluted with 400 mM imidazole; SDS-PAGE; details: both partners purified
T3 construct: source: E. coli, purified
T3 sequence (Q2FXQ7 whole entry): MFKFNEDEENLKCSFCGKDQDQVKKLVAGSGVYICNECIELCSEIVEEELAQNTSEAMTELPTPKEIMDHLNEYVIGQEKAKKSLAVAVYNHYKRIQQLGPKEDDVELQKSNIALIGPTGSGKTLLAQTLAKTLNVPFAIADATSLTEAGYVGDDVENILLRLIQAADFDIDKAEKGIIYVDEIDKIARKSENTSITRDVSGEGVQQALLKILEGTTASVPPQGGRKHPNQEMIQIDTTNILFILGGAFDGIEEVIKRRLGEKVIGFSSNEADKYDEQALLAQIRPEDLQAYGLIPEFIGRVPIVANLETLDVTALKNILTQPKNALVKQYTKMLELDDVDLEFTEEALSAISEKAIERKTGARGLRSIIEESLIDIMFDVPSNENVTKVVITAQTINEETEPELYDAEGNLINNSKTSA
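For Relative inhibition rate (%) in this document: ClpP peptidase activity measured as fluorescence (ex 360 nm, em 465 nm) from cleavage of Suc-LY-AMC substrate at 100 µM, 30 min at 32°C.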

Row | Molecule | inhibition at 64 µg/mL (ClpP [1]) | further results
1 | CC1=C[C@H](O)CC(C)(C)[C@H]1/C=C/C(C)=C/C=C/C(C)=C/C=C/C=C(C)/C=C/C=C(C)/C=C/C1=C(C)C[C@@H](O)CC1(C)C [Lutein] | 1.4 ± 0.52% | 
2 | COc1ccc(-c2cc(=O)c3c(O)c(OC)c(O)c(OC)c3o2)cc1 [Lysionotin] | 59.1 ± 1.55% | 
3 | O=C1C[C@@H](c2ccc(O)cc2)Oc2cc(O)cc(O)c21 [Naringenin] | 8.2 ± 0.24% | 
4 | C[C@@H]1O[C@@H](O[C@H]2[C@H](Oc3cc(O)c(C(=O)CCc4ccc(O)cc4)c(O)c3)O[C@H](CO)[C@@H](O)[C@@H]2O)[C@H](O)[C@H](O)[C@H]1O [Naringin dihydrochalcone] | 20.6 ± 0.51% | 
5 | C=C(C)[C@H](CC=C(C)C)Cc1c(O)cc(O)c2c1O[C@H](c1ccc(O)cc1O)CC2=O [Nor-kurarinone] | 83.3 ± 0.02% | MIC (S. aureus USA300 (MRSA)): 2 µg/mL (≈ 4.71 µM)
6 | O=c1cc(-c2ccc(O)c(O)c2)oc2c([C@@H]3O[C@H](CO)[C@@H](O)[C@H](O)[C@H]3O)c(O)cc(O)c12 [Orientin] | 61.4 ± 1.24% | 
7 | COc1ccc(C(C)=O)c(O)c1 [Paeonol] | 26.7 ± 4.31% | 
8 | COc1ccc(-c2cc(=O)c3c(O)c(OC)c(O[C@@H]4O[C@H](CO[C@@H]5O[C@@H](C)[C@H](O)[C@@H](O)[C@H]5O)[C@@H](O)[C@H](O)[C@H]4O)cc3o2)cc1 [Pectolinarin] | 28.3 ± 1.37% | 
9 | COc1cc2c(cc1O)C[C@H]1c3cc(O)c(OC)cc3CC[N+]1(C)C2 (stereo partly shown) [Phellodendrine chloride] | 10.2 ± 2.67% | 
10 | O=C(CCc1ccc(O)cc1)c1c(O)cc(O)cc1O[C@@H]1O[C@H](CO)[C@@H](O)[C@H](O)[C@H]1O [Phlorizin] | 5.3 ± 0.71% | 
11 | O=C1C[C@@H](c2ccccc2)Oc2cc(O)cc(O)c21 [Pinocembrin] | 33.7 ± 0.68% | 
12 | C/C=C(/C)C(=O)O[C@H]1[C@@H](OC(C)=O)c2c(ccc3ccc(=O)oc23)OC1(C)C [Praeruptorin A] | 37.8 ± 3.15% | 
13 | COc1ccc(-c2oc3c(OC)c(O)cc(O)c3c(=O)c2O)cc1 [Prudomestin] | 54.2 ± 4.67% | 
14 | O=C1c2ccccc2C(=O)c2c(O)c(O)cc(O)c21 [Purpurin] | 11.6 ± 2.51% | 
15 | COc1ccc(/C=C/c2cc(O)cc(O)c2)cc1O [Rhapontigenin] | 42.2 ± 2.89% | 
16 | C[C@@H]1O[C@@H](O[C@H]2[C@H](Oc3cc(O)c4c(=O)cc(-c5ccc(O)cc5)oc4c3)O[C@H](CO)[C@@H](O)[C@@H]2O)[C@H](O)[C@H](O)[C@H]1O [Rhoifolin] | 46.7 ± 1.3% | 
17 | COc1cc(O)c2c(c1)O[C@H](c1ccc(O)cc1)CC2=O [Sakuranetin] | 3.9 ± 1.2% | 
18 | C[C@H]1CC[C@@]2(OC1)O[C@H]1C[C@H]3[C@@H]4CC[C@@H]5C[C@@H](O)CC[C@]5(C)[C@H]4CC[C@]3(C)[C@H]1[C@@H]2C [Sarsasapogenin] | 7.8 ± 0.96% | 
19 | CC(C)=CC[C@@H](O)C1=CC(=O)c2c(O)ccc(O)c2C1=O [Shikonin] | 13.4 ± 1.54% | 
20 | COc1cc([C@@H]2Oc3c(O)cc([C@H]4Oc5cc(O)cc(O)c5C(=O)[C@@H]4O)cc3[C@H]2CO)ccc1O [Silicristin] | 9.3 ± 0.83% | 

Row | Molecule | inhibition at 64 µg/mL (ClpP [1]) | further results
21 | C=CC/C(=N/OS(=O)(=O)O)S[C@@H]1O[C@H](CO)[C@@H](O)[C@H](O)[C@H]1O [Sinigrin] | 20.1 ± 4.17% | 
22 | COc1ccc(-c2cc(=O)c3c(OC)c(OC)c(OC)c(OC)c3o2)cc1 [Tangeretin] | 41.2 ± 1.53% | 
23 | Cc1coc2c1C(=O)C(=O)c1c-2ccc2c(C)cccc12 [Tanshinone I] | 12.3 ± 1.41% | 
24 | O=C1c2c(O)cc(O)cc2O[C@H](c2ccc(O)c(O)c2)[C@H]1O [Taxifolin] | 17.2 ± 1.2% | 
25 | COc1cc(O)c2c(=O)cc(-c3ccccc3)oc2c1 [Tectochrysin] | 7.1 ± 0.26% | 
26 | O=C(CCCCc1ccc2c(c1)OCO2)N1CCCCC1 [Tetrahydropiperine] | 24.5 ± 3.67% | 
27 | C[C@@H]1CC[C@@]2(OC1)O[C@H]1C[C@H]3[C@@H]4CC[C@H]5C[C@@H](O)CC[C@]5(C)[C@H]4CC[C@]3(C)[C@H]1[C@@H]2C [Tigogenin] | 12.3 ± 4.21% | 
28 | O=C(/C=C/c1ccc(O)cc1)OC[C@H]1O[C@@H](Oc2c(-c3ccc(O)cc3)oc3cc(O)cc(O)c3c2=O)[C@H](O)[C@@H](O)[C@@H]1O [Tiliroside] | 3.6 ± 0.17% | 
29 | CC(C)c1ccc2c(c1O)CC[C@H]1C3=C(CC[C@]21C)C(=O)OC3 [Triptophenolide] | 20.8 ± 0.61% | 
30 | COc1cc(-c2oc3cc(O)cc(O)c3c(=O)c2O[C@@H]2O[C@H](CO[C@@H]3O[C@@H](C)[C@H](O)[C@@H](O)[C@H]3O)[C@@H](O)[C@H](O)[C@H]2O[C@@H]2O[C@@H](C)[C@H](O)[C@@H](O)[C@H]2O)ccc1O [Typhaneoside] | 29.7 ± 0.72% | 
31 | O=c1cc(-c2ccc(O)cc2)oc2c([C@@H]3O[C@H](CO)[C@@H](O)[C@H](O)[C@H]3O)c(O)c([C@@H]3O[C@H](CO)[C@@H](O)[C@H](O)[C@H]3O)c(O)c12 [Vicenin-2] | 48.2 ± 2.26% | 
32 | COc1c(O)cc(O)c2c(=O)cc(-c3ccccc3)oc12 [Wogonin] | 35.4 ± 2.11% | 
33 | C=C(C)[C@@H]1CCC(C)=C[C@H]1c1c(O)cc(CCCCC)cc1O [cannabidiol] | 6.8 ± 2.41% | 
34 | CC(C)=CCc1c(O)ccc(C(=O)/C=C/c2ccc(O)cc2)c1O [isobavachalcone] | 97.6 ± 0.26% | MIC (S. aureus USA300 (MRSA)): 8 µg/mL (≈ 24.7 µM)
35 | CC(C)=CCc1c(-c2ccc(O)cc2O)oc2c([C@H]3C=C(C)C[C@@H](c4ccc(O)cc4O)[C@@H]3C(=O)c3ccc(O)cc3O)c(O)cc(O)c2c1=O [kuwanonG] | 21.2 ± 2.56% | 
36 | O=C(O)[C@H]1O[C@@H](Oc2cc(O)c3c(=O)cc(-c4ccc(O)c(O)c4)oc3c2)[C@H](O)[C@@H](O)[C@@H]1O [luteolin-7-glucuronide] | 47.1 ± 3.25% | 
37 | O=c1c(O)c(-c2cc(O)c(O)c(O)c2)oc2cc(O)cc(O)c12 [myricetin] |  | ClpP peptidase assay with fluorescent substrate Suc-LY-AMC (positive-control inh) (ClpP [2]): the inhibitory ability of quercetin and the positive-control myricetin on ClpP activity were the closest
38 | O=c1c(O)c(-c2ccc(O)c(O)c2)oc2cc(O)cc(O)c12 [quercetin] | 74.3 ± 2.67% | Kd (ClpP [3]): 197 nM; MIC (S. aureus USA300 (MRSA)): 128 µg/mL (≈ 424 µM)
39 | B1 |  | binding result [4]: binds
